The text below walks through data of patent US8247529B2, “Neoplasia targeting peptides and methods of using the same” (The Board of Trustees of the Leland Stanford Junior …, priority 2008, dated 2012).

Entries after “also recorded” stand apart in the source; their conditions may differ. Where only a bound is given, the exact number is not on record here.

In test [1] the test system is adjacent normal esophageal mucosa. Kind of test: Targeted peptide binding on esophageal mucosa (human tissue specimens). To be noted: 100 μmol FITC-conjugated peptide in PBS, 15 min, fresh biopsy. On the procedure:
(§1) Specimens were incubated with 100 μmol FITC-conjugated peptide in PBS (Panels a, b, c, d). Hematoxylin and eosin staining (Panels e, f, g, h) was performed on adjacent sections to show the pathology diagnosis. In HGD tissue the binding site is a group of consecutive cells located in the lining of esophageal. In normal Barrett's mucosa the binding site is sporadic separated cells in some area of mucosa.
(§2) IRB approval was granted by the Stanford University Medical Center, the VA Palo Alto Health Care Systems, and El Camino Hospital. Human subjects with a history of Barrett's esophagus undergoing routine screening endoscopy were recruited for this study and informed consent was obtained. Subjects with coagulation abnormalities, or low tolerance for endoscopy were excluded from the study. Tissue specimens were collected using standard pinch biopsy from regions of endoscopically apparent Barrett's and squamous esophagus and duodenum mucosa. Histopathology was evaluated by two gastrointestinal pathologists in a blinded fashion according to common criteria (Goldblum, Mod Pathol 2003;16:316-24).
(§3) The tissue specimens were placed immediately after excision in an Eppendorf tube containin PBS at 4° C. PBS and incubated with100 μmol of targeted peptide ‘ASYNYDA’ for 15 minutes at room temperature. After being washed three times with PBS at 4° C., the specimens were embedded in OCT freezing compound (Sakura finetek USA), cut in 6 μm sections, and placed onto Poly-D-lysine coated slides. The tissue specimens were fixed in acetone at 4° C. for 90 seconds, counterstained with DAPI, and mounted in Vectashield. An adjacent serial section of the specimen was cut and stained with H&E for routine histology and comparison.
(§4) For each specimen 10 serial section were screened under microscope. Three highest intensity fluorescence images were collected at 400× using the same gain and exposure time. Fluorescence intensities of images were quantified by NIH Image J software to calculate pixel value between each sample under the same threshold (40, 255). Differences in the mean fluorescence intensities between four tissue types were compared using a student's t test.

The test system of test [2] is normal (non-dysplastic) Barrett's tissue. Described as above. To be noted: 100 μmol FITC-conjugated peptide in PBS, 15 min, fresh biopsy. On the procedure:
as §1, §2, §3, §4

Another test relates to duodenal mucosa. The description is as above. To be noted: 100 μmol FITC-conjugated peptide in PBS, 15 min, fresh biopsy. On the procedure: as §1, §2, §3, §4
Test [3] deals with Barrett's with high-grade dysplasia (HGD) tissue. Described as above. On the procedure: as §1, §2, §3, §4
Test [4] has as its system QhTERT (normal Barrett's) cells. The test is described as follows: Peptide binding on cell lines. Particulars: 100 μmol FITC-conjugated peptide, 15 min room temperature. How it is done: (§5) FITC-conjugated peptide (100 μmol) was incubated with Segl (Panel a), OE21 (Panel c), QhTERT (Panel d) cells. Peptide binding were found in plasma membrane of >90% of Seg1 cells (Panel a).
(§6) 3×10^4-5×10^4 Seg-1, OE21, QhTERT cells were grown in chamber slides.
(§7) Blocking of non-specific binding to these cells was performed by adding 200 μL of 1% BSA diluted in PBS for 30 min. The cells were then incubated with 100 μmol of the targeted FITC conjugated peptide in serum free media for 15 min in room temperature. The scrambled peptide had been used as control. Wash cells 3-time use 200 μL PBS/0.5% TWEEN 20 in room temperature. Cell were fixed by ice cold Acetone 90 second. Then mounted by Vectashield mounting medium with DAPI. Fluorescence images were collected with a confocal microscope (Nikon 1000) at 200×. The fluorescence intensity from the cells in 3 images were averaged to assess peptide binding.

Test [5] concerns OE21 cells (squamous esophagus carcinoma). Kind of test: Peptide binding on cell lines. Particulars: 100 μmol FITC-conjugated peptide, 15 min room temperature. How it is done:
as §5, §6, §7

In a further test the test system is Seg1 cells. The test is described as follows: Competitive inhibition assay. Format: binding. Particulars: unconjugated peptide 100, 500, 1000 μmol (5 or 10 times higher concentration) 15 min prior to FITC-conjugated peptide, P<0.01. How it is done: Unconjugated peptide was incubated with Seg1 cells 15 min prior to adding of FITC-conjugated peptide in three different concentrations. […] Error bars represent mean±s.e.m. for 3 images. *P<0.01.
Competitive inhibition of targeted peptide binding was evaluated by incubating the cells in culture with unconjugated (no FITC) peptide at concentrations of 100, 500, and 1000 μmol. Three fluorescence images were collected at 200× from each well of the chamber slide using the same gain and exposure time. Images selected for analysis met the following criteria: 1) 70-90% cell confluence, 2) away from the edge of each well, 3) low background binding on cell free area of slide, 4) No change in cellular morphology. The mean cell numbers under three 200× view were record to calculate the percentage of peptide binding cells. Quantification of the fluorescence intensities was done by NIH Image J software to calculate pixel value between each group under the same threshold. Differences in the mean fluorescence intensities were compared using a student's t test.

Test [6] deals with Seg-1 cells (esophageal adenocarcinoma). Kind of test: Phage binding assay (cell binding of phage clones relative to insertless phage). To be noted: Seg-1 vs QhTERT, p<0.01. How it is done:
Individual phage clones (2×10^11 pfu) were incubated at room temperature for 30 min with Segl and Q-hTERT cells. The columns represent the mean of measurements from three wells and the bars represent the standard deviation (SD). P-values for each group were calculated using student's t test.
According to the sequencing results some peptide sequence expressed on more than one phage clones. These phage clones had been amplified respectively for the binding assay. Seg-1 cell and Q-hTERT cell (None dysplasia Barrett's cell line) were growth in 6 well plate. 2×10^11 pfu each single clone phage were incubated with both cell in triple wells. Wild-type (no insert) phage (M13KE, New England Biolabs, Beverly, Mass.) was used as control. The incubation, two-step elution and tittering were done as mentioned above. […] Fold binding of each phage relative to none insert phage was measured. Different binding of each phage clone on Seg-1 and QhTERT were calculated using student's t test.

The next test deals with Seg-1 cells. The test is described as follows: Peptide binding on cell lines. Particulars: 100 μmol FITC-conjugated peptide, 15 min room temperature. On the procedure:
as §5, §6, §7

In test [7] the test system is esophageal adenocarcinoma within Barrett's esophagus. Kind of test: In vivo molecular imaging, small animal model (EGJ rat, fluorescence endoscopy). Particulars: topical 1 mL 100 μM, 5 min incubation, rinsed. From the text:
In vivo molecular imaging has been performed in small animal models of esophageal neoplasia to localize binding by targeted peptides. A rigid endoscope for imaging the rat esophagus consists of a 9.5 Fr (3 mm) diameter rigid Hopkins II 0 deg telescope with a 11.5 cm working length (Karl Storz Veterinary Endoscopy, Goleta, Calif.). A 3 Fr (1 mm) diameter instrument channel is available to perform tissue biopsy. Fluorescence excitation light is produced with a 450 to 475 nm passband filter that can be manually placed into the optical path of a xenon (175 W) light source, and is delivered to the endoscope via a light guide. Fluorescence images were collected with 510 nm barrier filter to block the excitation light, and detected with a color CCD camera. The molecular imaging studies were performed in the surgically-altered (EGJ) rats after 36 weeks. The rats were fasted overnight, anesthetized using inhaled isoflurane, and placed in the supine position. The extremities and incisors were restrained to prevent injury to the animal. The endoscope was inserted into the distal esophagus using ˜1 to 2 ml of air injected through an instrument port to dilate the esophageal lumen. The FITC-labeled target peptide was topically administered through the instrument channel onto the distal esophagus in a 1 mL solution diluted in PBS at a concentration of 100 μM. After incubation for 5 minutes, excess peptide was rinsed off with tap water, and binding was evaluated by fluorescence. […] A complete examination usually lasts <2 minutes.

A further test relates to TE7 cells. Kind of test: Peptide binding on cell lines. Particulars: FITC-conjugated peptide. How it is done:
as §7

In a further test the test system is GIL hTERT(HGD) cells. Kind of test: Peptide binding on cell lines. Particulars: FITC-conjugated peptide. How it is done:
as §7

Test [8] has as its system Barrett's mucosa with high-grade dysplasia. The test is described as follows: Confocal fluorescence of frozen sections of targeted biopsies after clinical imaging. To be noted: biopsies after topical administration in human subjects, 400×. Format: binding. How it is done: (§8) Routine histology (H&E) of corresponding images is shown in Panel c and Panel d, magnification 400×.
(§9) No distinct architectural lesions can be appreciated. […] Targeted biopsies were collected from sites suspicious for HGD, non-dysplastic Barrett's esophagus. The specimens were embedded in OCT media, cooled to […], and cut into 10 μm horizontal sections on a cryostat.
(§10) The specimens were then evaluated for fluorescence on a tabletop confocal microscope, and an adjacent section was formalin fixed and stained with H&E for evaluation by two pathologists. […] Routine histology (H&E) of the corresponding images (Panels c and d) from adjacent frozen sections are also shown for purposes of comparison, magnification 400×.

The test system of test [9] is Barrett's mucosa with no dysplasia. The description is as above. In kind it is binding. Particulars: biopsies after topical administration in human subjects, 400×. On the procedure: as §8, §9, §10
Test [10] deals with high-grade dysplasia in Barrett's esophagus. The test is described as follows: Clinical imaging (fluorescence endoscopy of distal esophagus). In kind it is in vivo. Particulars: human, topical ~3 ml 10 μM.
Description: Endoscopic images collected in vivo of distal esophagus in human subject with Barrett's esophagus and high grade dysplasia on white-light endoscopy (Panel a) and fluorescence imaging (Panel b).
A prototype endoscope was used to collect fluorescence images of peptide binding from human subjects with Barrett's esophagus and high-grade dysplasia using the target peptide labeled with FITC. With IRB approval and informed consent, human subjects with a history of Barrett's esophagus and biopsy proven high-grade dysplasia scheduled for endoscopic mucosal resection were recruited into the study. After esophageal intubation, a 10 second video was collected in the white light mode. Then, ˜3 ml of peptide at a concentration of 10 μM was administered topically to the distal esophagus using a mist spray catheter. After 5 minutes for incubation, excess peptide was gently rinsed off with water, and another 10 second video was collected of the peptide targeted fluorescence image. The mucosa of the distal esophagus was then removed by endoscopic mucosal resection. Each video stream was exported into individual frames.
as §9

For the substance ASYNYDA, the “peptide binding to adjacent normal esophageal mucosa” value in test [1] is given as “did not bind”. For the same substance, the “peptide binding to normal Barrett's tissue” value in [2] is “bound”. Moreover, in the test with duodenal mucosa, the “peptide binding to duodenal mucosa” value is listed as “did not bind”. Besides, the “peptide binding to Barrett's with high-grade dysplasia tissue” value in test [3] (100 μmol FITC-conjugated peptide in PBS, 15 min, fresh biopsy) is recorded as “bound”. Moreover, in test [3] (HGD vs Barrett's, duodenal and normal esophageal mucosa, P<0.01), the “quantization of peptide binding (fluorescence intensity, NIH Image J), HGD vs other tissues” value is listed as “higher preferential bind on HGD than other tissues”. In addition, in test [4], the “peptide binding to QhTERT cells” value is given as “didn't binding”. For the same substance, the “peptide binding to OE21 cells” value in test [5] is “didn't binding”. The “inhibition of FITC-conjugated peptide binding to Seg1 cells by unconjugated peptide” value in the test on Seg1 cells is “can be inhibited”; in the test on Seg1 cells (listed as unconjugated peptide 17), “could be inhibited”. Also, the “fluorescence intensity with Seg-1 than with QhTERT cells” value in test [6] was found to be 5 times.
Regarding YANSAYD [scrambled peptide-FITC], the “peptide binding to Seg-1 cells” value with Seg-1 cells was “did not bind on any cells”; in the test on Seg-1 cells (listed as Scrambled FITC-conjugated peptide), “no binding”.
In the case of ASYNYDA-GGGSK-FITC [Peptide 17-FITC], the average target-to-background ratio in test [7] was determined as 5±2. The “fluorescence at site of lesion after topical peptide” value in test [7] (listed as FITC-labeled target peptide) is on record as “Increased fluorescence intensity was observed at the site of the lesion”; in [7] (listed as target peptide), “increased fluorescence intensity at the site of the lesion”; in test [10] (5 min incubation, rinsed, listed as FITC-labeled target peptide), “increased fluorescence intensity at a site; also recorded: increased fluorescence intensity at the site of the lesion”. Also, the “percentage of Seg-1 cells with peptide binding on plasma membrane” value with Seg-1 cells is listed as more than 90%. Further, the “percentage of TE7 cells with peptide binding on cytoplasm” value with TE7 cells worked out at 37%. Moreover, the “percentage of GIL hTERT(HGD) cells with peptide binding on cytoplasm” value in the test with GIL hTERT(HGD) cells was 1%. Further, the “binding to Barrett's mucosa with high-grade dysplasia (frozen section)” value in test [8] (listed as FITC-labeled peptide) is reported as “significant binding”; in [8] (listed as target peptide) it was “Significant binding”. Also, the “binding to Barrett's mucosa with no dysplasia (frozen section)” value in test [9] is on record as “minimal binding”. Besides, in test [10] (mean fluorescence of 5 independent regions), the “target-to-background ratio (HGD vs non-dysplastic Barrett's metaplasia)” value amounted to 1.52.
